# Source: patent US20250262268A1, “Methods and Compositions for Inhibiting Viral Infection” (New York Genome Center, Inc., priority 2020, published 2025)
# Entries after “also recorded” stand apart in the source; their conditions may differ.
# Assays:
# SARS-CoV-2 [1] = test: qPCR of SARS-CoV-2 viral load in non-targeting or PIK3C3 CRISPR-perturbed A549-ACE2 cells treated with PIK3C3 inhibitors; format: cell-based; conditions: 10 μM, 2 hours pretreatment, MOI 0.1, 36 hpi
# [2] = test system: primary human CD8+ T-cells; test: T cell activation, intracellular cytokine staining after CD3/CD28 stimulation; format: cell-based; conditions: 10 μM, 1 hour pre-incubation
# SARS-CoV-2 [3] = test: qRT-PCR of SARS-CoV-2 viral load in inhibitor-treated A549-ACE2 cells; format: cell-based, SARS-CoV-2 isolate USA-WA1/2020; conditions: 10 μM inhibitor, MOI 0.1, 36 hpi
compound,measurement,setting,value
"Cc1cc(Nc2cc(Cl)nc(Oc3ccc([N+](=O)[O-])cc3)n2)n[nH]1 [autophinib, Autophinib]",specificity for PIK3C3: viral inhibition in PIK3C3 CRISPR-perturbed versus non-targeting cells,SARS-CoV-2 [1],specific
"CC/C(=C(\c1ccccc1)c1ccc(OCCN(C)C)cc1)c1ccccc1 [tamoxifen, Tamoxifen]",effect on T-cell activation and cytokine secretion,[2],no effect
same,reduction in SARS-CoV-2 viral load (in words),SARS-CoV-2 [3],substantial reduction
Nc1ncc(-c2ccnc(Nc3ccncc3)n2)c(CC2CC2)n1 [PIK-III],specificity for PIK3C3: viral inhibition in PIK3C3 CRISPR-perturbed versus non-targeting cells,SARS-CoV-2 [1],specific
"CC[C@H](Nc1ncnc2[nH]cnc12)c1nc2cccc(F)c2c(=O)n1-c1ccccc1 [idelalisib, Idelalisib]",release of interferon-gamma (IFNγ) by CD8+ T-cells,[2],significant reduction
same,release of tumor necrosis factor (TNF) by CD8+ T-cells,[2],significant reduction
C[C@@H]1COCCN1c1cc(=O)n2c(n1)N(Cc1cncc(Cl)c1)[C@H](C(F)(F)F)CC2 [SAR405],specificity for PIK3C3: viral inhibition in PIK3C3 CRISPR-perturbed versus non-targeting cells,SARS-CoV-2 [1],greater viral inhibition in PIK3C3 CRISPR-perturbed cells; also recorded: may have some off-target effects
